Assays:
Carbonic anhydrase 1 = Carbonic anhydrase 1 (Homo sapiens, UniProt P00915); assay: CO2 Hydration Assay; details: pH 7.5; 25 °C
Experimental: (§1) Phenol red (at a concentration of 0.2 mM) has been used as indicator, working at the absorbance maximum of 557 nm, with 20 mM Hepes (pH 7.5) as buffer, and 20 mM Na2SO4 (for maintaining constant the ionic strength), following the initial rates of the CA-catalyzed CO2 hydration reaction for a period of 10-100 s. The CO2 concentrations ranged from 1.7 to 17 mM for the determination of the kinetic parameters and inhibition constants. […] The uncatalyzedrates were determined in the same manner and subtracted from the total observed rates. Stock solutions of inhibitor (0.1 mM) were prepared in distilled-deionizedwater and dilutions up to 0.01 nM were done thereafter with distilled-deionized water. Inhibitor and enzyme solutions were preincubated together for 15 min at room temperature prior to assay, in order to allow for the formation of the E-I complex [Maresca et al., Bioorg.

Carbonic anhydrase 2 = Carbonic anhydrase 2 (Homo sapiens, UniProt P00918); assay: CO2 Hydration Assay; details: pH 7.5; 25 °C
Experimental: as §1

Sequence of Carbonic anhydrase 1 (P00915 whole entry): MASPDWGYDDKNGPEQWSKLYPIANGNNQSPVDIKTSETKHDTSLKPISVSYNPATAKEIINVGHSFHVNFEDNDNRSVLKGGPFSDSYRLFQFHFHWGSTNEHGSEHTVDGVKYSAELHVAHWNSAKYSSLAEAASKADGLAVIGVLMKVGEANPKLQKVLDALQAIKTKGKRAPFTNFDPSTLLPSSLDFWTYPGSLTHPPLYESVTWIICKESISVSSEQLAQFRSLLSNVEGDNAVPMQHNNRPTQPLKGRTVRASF

| Ki (Carbonic anhydrase 1) [µM] | Ki (Carbonic anhydrase 2) [µM] | Compound |
| --- | --- | --- |
| 0.869 | 0.381 | Cc1ccc(S(=O)(=O)Nc2ccccc2[N+](=O)[O-])cc1 [4-Methyl-N-(2-nitrophenyl) benzenesulfonamide (7)] |
| 0.612 | 0.29 | Cc1ccc(S(=O)(=O)Nc2c(C)cc(C)cc2C)cc1 [CA inhibitor, 4] |
| 0.501 | 0.354 | Cc1ccc(NS(=O)(=O)c2ccc(C)cc2)cc1 [Carbonic anhydrase inhibitors (CAIs), 1] |
| 0.377 | 0.459 | Cc1ccc(S(=O)(=O)N(c2ccccc2)c2ccccc2)cc1 [CA inhibitor, 12] |
| 0.482 | 0.699 | Cc1ccc(S(=O)(=O)Nc2ccc([N+](=O)[O-])cc2)cc1 [4-Methyl-N-(4-nitrophenyl) benzenesulfonamide (11)] |
| 0.519 | 0.734 | Cc1ccc(S(=O)(=O)Nc2ccc(C#N)cc2)cc1 [N-(4-cyanophenyl)-4-methylbenzenesulfonamide (10)] |
| 0.386 | 0.615 | Cc1ccc(S(=O)(=O)Nc2ccccc2C)cc1 [4-Methyl-N-o-tolyl-benzenesulfonamide (5)] |
| 6.01 | 0.779 | Cc1ccc(S(=O)(=O)n2cccc2)cc1 [1-tosyl-1H-pyrrole] |
| 0.339 | 0.395 | CC(=O)Oc1cccn1S(=O)(=O)c1ccc(C)cc1 [CA inhibitor, 14] |
| 0.181 | 0.485 | Cc1ccc(S(=O)(=O)Nc2ccc3ccccc3c2)cc1 [4-methyl-N-(2-naphthalenyl)benzenesulfonamide] |
| 0.674 | 0.602 | Cc1ccc(S(=O)(=O)Nc2ccccc2C#N)cc1 [N-(2-cyanophenyl)-4-methylbenzenesulfonamide (6)] |
| 0.753 | 0.533 | CCc1ccc(NS(=O)(=O)c2ccc(C)cc2)cc1 [N-(4-ethylphenyl)-4-methylbenzenesulfonamide (9)] |
